Source: PubChem BioAssay (NCI)
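These data come from cells grown in 96-well plates and exposed to compound for 48 hours at five concentrations. GI50: concentration for 50% inhibition of growth. Definition used: TGI = concentration required for complete inhibition of growth.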 *1 amine or outer side, *2 acyl side, *3 side chain or, on linkers, in order; H or OH if unused. Where a SMILES comes first, the peptide text is derived from it. Bridges are numbered along the chain shown (N, C = ends). [ ]: non-standard residue; d: D form. The star is where a group is joined. X38 = CC[C@H](C)[C@@H](N[*:1])[C@@H](O)CC(=O)[*:2]; NMeY = CN[C@@H](Cc1ccc(O)cc1)C(=O)O; dNMeL = CN[C@H](CC(C)C)C(=O)O; Hiv = CC(C)[C@H](O)C(=O)O; Pyruvoyl = CC(=O)C(=O)*

Tests used:
Test in all cases: NCI-60 cell line screen, 48 h
M14 melanoma = system: M14 melanoma
CCRF-CEM leukemia = system: CCRF-CEM leukemia
RPMI-8226 leukemia = system: RPMI-8226 leukemia
SNB-75 CNS = system: SNB-75 CNS
KM12 colon = system: KM12 colon
SNB-19 CNS = system: SNB-19 CNS
HL-60(TB) leukemia = system: HL-60(TB) leukemia
SW-620 colon = system: SW-620 colon
OVCAR-8 ovarian = system: OVCAR-8 ovarian

Compound	TGI (M14 melanoma) [µM]	TGI (CCRF-CEM leukemia) [µM]	TGI (RPMI-8226 leukemia) [µM]	TGI (SNB-75 CNS) [µM]	TGI (KM12 colon) [µM]	TGI (SNB-19 CNS) [µM]	TGI (HL-60(TB) leukemia) [µM]	TGI (SW-620 colon) [µM]	TGI (OVCAR-8 ovarian) [µM]	GI50 (M14 melanoma) [µM]	GI50 (SNB-75 CNS) [µM]	GI50 (KM12 colon) [µM]	GI50 (SW-620 colon) [µM]	GI50 (OVCAR-8 ovarian) [µM]
COc1ccccc1C1CC(=O)CC(c2ccccc2OC)C12C(=O)NC(=S)NC2=O (stereo not given)	> 100	> 100	52.7	> 100	> 100	> 100	69.5	> 100	> 100	–	–	–	–	–
CSc1nc2ccccc2c(=O)n1/N=C1\C(=O)N(CN2CCCCC2)c2ccc(Cl)cc21	> 100	> 100	–	58.4	> 100	> 100	50.1	52.1	> 100	–	–	–	–	–
CCOC(=O)C(c1c[nH]c2ccccc12)(c1c[nH]c2ccccc12)c1c[nH]c2ccccc12	> 100	58.9	45.7	88.5	98.7	> 100	43.9	75.9	> 100	–	–	–	–	–
COc1cc2c(/C=C3/C(=O)Nc4ccc(Cl)cc43)c(Cl)n(Cc3ccccc3)c2cc1C	18.2	6.78	6.9	4.61	5.64	8.98	17.4	> 100	–	–	–	–	–	–
COc1ccc(/C=C2\OC(=O)C(Cl)=C2c2ccc(OC)cc2)cc1	> 100	> 100	> 100	> 100	> 100	> 100	> 100	> 100	> 100	–	–	–	–	–
CCOC(=O)CCC(NC(=O)Cc1ccc(Nc2nc3ccccc3nc2-c2ccccc2)cc1)C(=O)OCC (stereo not given)	> 100	> 100	–	38.3	> 100	> 100	> 100	> 100	> 100	–	–	–	–	–
Nc1ccn(C2CC(O)C(COP(O)(=S)OC3CC(n4ccc(N)nc4=O)OC3CO)O2)c(=O)n1 (stereo not given)	> 100	> 100	> 100	> 100	> 100	> 100	> 100	> 100	> 100	–	–	–	–	–
CCOC(=O)/C(N=Nc1ccc(-n2c(C)nc3ccccc3c2=O)cc1)=C(/C)O	> 100	> 100	> 100	78.4	37.4	> 100	41.2	> 100	50.5	–	–	–	–	–
COC(=O)[C@H](Cc1ccccc1)NC(=O)NCCN(CCNC(=O)N[C@@H](Cc1ccccc1)C(=O)OC)C(=O)N[C@@H](Cc1ccccc1)C(=O)OC	45.7	–	46.3	35.9	39.5	48.2	–	43.8	34.6	–	–	–	–	–
CC1C2CC(CC(=O)N2)C1(C)C (stereo not given)	> 100	> 100	–	> 100	> 100	> 100	> 100	> 100	> 100	–	–	–	–	–
C[C@@]12C=CC3C/C(=N\C(N)=S)C=C(CCCC4OCCO4)[C@]3(CC1)C2 (stereo not given in full)	30.9	–	50.8	66.3	> 100	> 100	–	48.9	68.1	–	–	–	–	–
COc1ccc(-c2ccc(-c3ccc(C(=N)N)nc3)s2)cc1	3.35	–	–	2.88	3.3	–	–	1.7	4.87	1.8	1.55	1.81	0.43	2.12
CC(C)=CCOc1cc(NC(=S)c2ccoc2C)ccc1Cl	–	> 100	> 100	63.9	> 100	> 100	–	> 100	> 100	–	–	–	–	–
COc1cc2c(cc1OC)-c1[nH]c3ccc(C#N)cc3c1CC(=O)N2	> 100	> 100	–	> 100	> 100	> 100	7.45	> 100	> 100	–	–	–	–	–
CC1=C(C(=O)Nc2cccc3c2C(=O)NC3=O)CC(C(=O)Nc2cccc3c2C(=O)NC3=O)=C(C)N1	> 100	> 100	> 100	> 100	> 100	> 100	> 100	> 100	–	–	–	–	–	–
CCOC(=O)NC(C(F)(F)F)(C(F)(F)F)P(=O)(OC(C)C)OC(C)C	–	> 100	> 100	> 100	> 100	> 100	> 100	> 100	> 100	–	–	–	–	–
NCCCCNCCCN1CC1	> 100	–	> 100	1.92	24.4	22.5	5.32	> 100	–	–	–	–	–	–
Cn1nc(Cc2ccc(Cl)cc2)n(N)c1=O	–	–	> 100	> 100	> 100	> 100	–	> 100	> 100	–	–	–	–	–
CSC1=N[C@H](c2ccccc2)CS1	> 100	> 100	> 100	> 100	> 100	> 100	–	> 100	–	–	–	–	–	–
C=C1C(=O)C([Si](C)(C)C)=C2C=C(C)C3(CC3)C12C (stereo not given)	> 100	11	15.3	–	> 100	> 100	34.8	> 100	> 100	–	–	–	–	–
CC(C)c1ccccc1SC1CC(=O)CC(Sc2ccccc2C(C)C)C12O[C@H](c1ccccc1)[C@@H](c1ccccc1)O2 (stereo not given in full)	40.8	52.9	61.3	–	> 100	> 100	34.8	> 100	> 100	–	–	–	–	–
CC[C@H](C)[C@H]1NC(=O)[C@@H](NC(=O)[C@@H](CC(C)C)N(C)C(=O)[C@@H]2CCCN2C(=O)C(C)=O)[C@@H](C)OC(=O)[C@H](Cc2ccc(OC)cc2)N(C)C(=O)[C@@H]2CCCN2C(=O)[C@H](CC(C)C)NC(=O)[C@H](C(C)C)OC(=O)C[C@@H]1O (Pyruvoyl-P[dNMeL]T[X38][Hiv]LP[NMeY](Me); ester 3-C)	0.0261	–	0.0465	0.0101	0.151	0.721	0.187	–	0.342	–	–	–	–	–
CC1=C/C(=N\OCC(=O)O)CC(c2ccc(C(C)C)cc2)C1 (stereo not given)	> 100	> 100	57.1	–	> 100	–	> 100	> 100	> 100	–	–	–	–	–
O=C(c1ccc(Cl)cc1Cl)N(C(=O)N1CCC(c2ccccc2)CC1)c1ccccc1	> 100	> 100	> 100	> 100	> 100	> 100	–	> 100	> 100	–	–	–	–	–
